The results in this text go back to US20110046056A1, “APOA-1 PEPTIDE MIMETICS” (priority 2007, published 2011).

Where two headings read alike, the source gives them in different places. *1 amine or outer side, *2 acyl side, *3 side chain or, on linkers, in order; H or OH if unused. Where a SMILES comes first, the peptide text is derived from it. Bridges are numbered along the chain shown (N, C = ends). Where no end group is shown, it is not given here. [ ]: non-standard residue; d: D form. S6H = (2S)-2-aminooct-7-enoic acid, C=CCCCC[C@H](N[*:1])C(=O)[*:2]; R5Me = hydrocarbon side chain-substituted amino acid; dNle(6-ylidene) = O=C([C@@H](CCCC=[*:3])N[*:1])[*:2]; dGly(6-heptenyl) = C=CCCCCC[C@@H](N)C(=O)O; Ala(5-hexenyl) = C=CCCCCC[C@H](N)C(=O)O; dNle(6-vinyl) = C=CCCCC[C@@H](N)C(=O)O; Gla = N[C@@H](CC(C(=O)O)C(=O)O)C(=O)O

Experiment [1] in a line: Lipid (liposome) solubilization, turbidimetric method. The format is biochemical. On the procedure: As noted above, the other important parameter was phospholipid solubilization. A turbidimetric method is used to determine the solubilization capacity of peptides of the present invention. First, a three-fold serial titration of the peptide is prepared in a polypropylene v-shaped 96-well plate. The eight-point titration is done in phosphate-buffered saline (PBS, pH 7.5) or DMSO from a starting concentration that allows for addition to an optically-clear bottomed assay plate in <100 μl aliquots to yield a starting concentration of 500 μM in 200 μl final well volume. PBS is then added to each well to bring the total volume to 100 μl. Any bubbles in the wells must be dispersed to avoid erroneous results. Next, from a turbid but homogeneous emulsion of dimyristoyl phosphatidylcholine at 0.5 mg/ml in PBS, 100 μl is added to each well in the assay plate, the plate is inserted into the NEPHELOSTAR (BMG LABTECH INSTRUMENTS), and readings are taken immediately and every 15 minutes over 2 hours.
A true 0-point value is calculated by averaging the readings of the wells with phospholipid but no peptide. For each peptide concentration, a percent decrease in turbidity is calculated by subtracting the 0-point value from the corresponding 30 and 120 minute readings and dividing by that 0-point value. Finally the EC50 values for both time points are determined using PRISM software (Table 2).

Experiment [2] has as its target T1, ABCA1 cholesterol transporter protein (Mus musculus, UniProt P41233).
T1 construct: endogenous in cells
The experiment in a line: ABCA1-dependent cholesterol efflux from RAW mouse macrophage cells (in vitro RCT assay). The format is cell-based. The essentials:
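RAW macrophages labelled with ^3H-cholesterol (5 μCi/ml) 24 h, equilibrated overnight serum-free, then given eight-point peptide titrations 24 h with or without 150 μM CPT-cAMP. Percent efflux = medium counts/(medium + lysate); plain-medium efflux subtracted from cAMP value gives ABCA1-dependent efflux, fitted for EC50.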

[3] abbreviates: read-out: IC50 in the liposome solubilization assay.
Setting [4] is: read-out: EC50 in the cholesterol efflux assay (RCT in vitro assay).
The mark [5] stands for this setting: read-out: ABCA1-DEPENDENT CHOLESTEROL EFFLUX EC50.

T1 sequence (P41233 whole entry): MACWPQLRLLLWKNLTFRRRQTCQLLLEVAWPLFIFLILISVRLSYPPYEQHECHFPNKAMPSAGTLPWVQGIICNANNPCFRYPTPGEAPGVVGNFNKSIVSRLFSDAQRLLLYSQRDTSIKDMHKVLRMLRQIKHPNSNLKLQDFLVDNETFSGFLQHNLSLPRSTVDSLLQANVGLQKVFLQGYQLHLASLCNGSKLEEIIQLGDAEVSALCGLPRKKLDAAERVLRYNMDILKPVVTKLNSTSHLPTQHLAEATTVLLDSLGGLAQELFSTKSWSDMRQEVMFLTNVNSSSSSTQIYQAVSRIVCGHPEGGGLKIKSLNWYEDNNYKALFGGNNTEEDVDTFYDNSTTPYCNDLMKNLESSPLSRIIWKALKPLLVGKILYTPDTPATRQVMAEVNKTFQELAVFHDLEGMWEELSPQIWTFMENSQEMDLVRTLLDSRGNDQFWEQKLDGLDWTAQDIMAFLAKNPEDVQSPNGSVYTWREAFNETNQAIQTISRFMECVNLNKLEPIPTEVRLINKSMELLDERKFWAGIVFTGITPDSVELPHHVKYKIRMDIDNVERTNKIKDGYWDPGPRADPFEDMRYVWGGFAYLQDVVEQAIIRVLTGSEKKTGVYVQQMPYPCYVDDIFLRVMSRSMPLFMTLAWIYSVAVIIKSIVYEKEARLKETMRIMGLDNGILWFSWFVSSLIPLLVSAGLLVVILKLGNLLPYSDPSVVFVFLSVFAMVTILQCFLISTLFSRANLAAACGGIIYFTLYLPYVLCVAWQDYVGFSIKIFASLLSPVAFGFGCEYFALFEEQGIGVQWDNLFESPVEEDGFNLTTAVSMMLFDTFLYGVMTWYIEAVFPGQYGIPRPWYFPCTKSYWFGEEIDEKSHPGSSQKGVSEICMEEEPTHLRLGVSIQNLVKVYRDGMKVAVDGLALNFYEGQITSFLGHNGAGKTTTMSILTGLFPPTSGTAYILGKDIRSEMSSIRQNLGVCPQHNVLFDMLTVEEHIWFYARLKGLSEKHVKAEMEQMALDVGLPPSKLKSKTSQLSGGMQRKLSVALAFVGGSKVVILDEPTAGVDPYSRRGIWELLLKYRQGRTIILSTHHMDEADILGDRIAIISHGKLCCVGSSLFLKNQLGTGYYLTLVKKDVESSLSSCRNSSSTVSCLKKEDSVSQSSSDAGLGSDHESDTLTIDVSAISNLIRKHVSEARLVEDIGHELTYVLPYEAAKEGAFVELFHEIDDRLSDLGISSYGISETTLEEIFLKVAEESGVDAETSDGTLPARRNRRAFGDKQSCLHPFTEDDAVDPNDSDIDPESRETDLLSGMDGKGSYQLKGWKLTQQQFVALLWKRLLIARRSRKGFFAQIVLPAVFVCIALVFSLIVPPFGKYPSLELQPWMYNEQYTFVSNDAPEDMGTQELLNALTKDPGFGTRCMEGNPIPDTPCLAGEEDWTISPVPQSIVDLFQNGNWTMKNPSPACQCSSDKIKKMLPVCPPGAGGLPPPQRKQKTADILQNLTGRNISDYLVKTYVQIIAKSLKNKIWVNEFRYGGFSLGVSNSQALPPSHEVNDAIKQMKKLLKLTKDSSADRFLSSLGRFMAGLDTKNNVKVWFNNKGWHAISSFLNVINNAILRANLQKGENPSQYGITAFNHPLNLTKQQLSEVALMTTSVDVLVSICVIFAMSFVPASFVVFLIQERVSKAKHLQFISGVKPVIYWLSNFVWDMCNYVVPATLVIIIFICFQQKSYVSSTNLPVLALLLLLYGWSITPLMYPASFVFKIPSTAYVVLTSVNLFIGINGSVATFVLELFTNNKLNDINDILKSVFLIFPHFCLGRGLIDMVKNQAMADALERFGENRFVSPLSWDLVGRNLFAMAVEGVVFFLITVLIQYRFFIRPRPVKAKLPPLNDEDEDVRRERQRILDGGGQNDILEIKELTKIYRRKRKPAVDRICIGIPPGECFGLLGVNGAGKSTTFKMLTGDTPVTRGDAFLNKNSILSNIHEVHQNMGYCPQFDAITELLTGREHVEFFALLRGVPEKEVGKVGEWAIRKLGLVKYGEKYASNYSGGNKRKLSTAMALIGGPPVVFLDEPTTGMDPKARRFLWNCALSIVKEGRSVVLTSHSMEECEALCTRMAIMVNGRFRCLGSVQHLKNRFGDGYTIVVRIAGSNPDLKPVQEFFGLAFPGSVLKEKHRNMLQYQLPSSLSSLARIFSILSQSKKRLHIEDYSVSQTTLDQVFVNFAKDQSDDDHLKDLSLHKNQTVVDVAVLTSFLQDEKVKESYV

Usually IC50 stands for the midpoint of a concentration-inhibition curve. In the case of “16 (Ac-PVLDEFRE[R5Me]LNE[R5Me]LEALKQKLK; not fully specified (C-terminus)) [compound 16]”, in experiment [1] (Measured at 2 h, read-out: LIPID SOLUBILIZATION IC50), the IC50 was determined as 24 µM. As to `C=CCCC[C@@H](NC(=O)[C@H](CCC(=O)O)NC(=O)[C@H](CC(N)=O)NC(=O)[C@H](CC(C)C)NC(=O)[C@@H](CCCC=C)NC(=O)[C@H](CCC(=O)O)NC(=O)[C@H](CCCNC(=N)N)NC(=O)[C@H](Cc1ccccc1)NC(=O)[C@H](CCC(=O)O)NC(=O)[C@H](CC(=O)O)NC(=O)[C@H](CC(C)C)NC(=O)[C@@H](NC(=O)[C@@H]1CCCN1C(C)=O)C(C)C)C(=O)N[C@@H](CC(C)C)C(=O)N[C@@H](CCC(=O)O)C(=O)N[C@@H](C)C(=O)N[C@@H](CC(C)C)C(=O)N[C@@H](CCCCN)C(=O)N[C@@H](CCC(N)=O)C(=O)N[C@@H](CCCCN)C(=O)N[C@@H](CC(C)C)C(=O)N[C@@H](CCCCN)C(N)=O` [SEQ ID NO 9, PVLDEFRER5HLNER5HLEALKQKLK] (Ac-PVLDEFRE[dNle(6-ylidene)]LNE[dNle(6-ylidene)]LEALKQKLK-NH2; C-terminus assumed), the IC50 in experiment [1] (setting [3]) is 91 µM. A word on the EC50: it is the concentration that produces a half-maximal response. Regarding `C=CCCCCC[C@H](NC(=O)[C@H](CCC(=O)O)NC(=O)[C@H](CC(=O)O)NC(=O)[C@H](CC(C)C)NC(=O)[C@@H](NC(=O)[C@@H]1CCCN1C(C)=O)C(C)C)C(=O)N[C@@H](CCCNC(=N)N)C(=O)N[C@@H](CCC(=O)O)C(=O)N[C@@H](CCCCN)C(=O)N[C@@H](CC(C)C)C(=O)N[C@@H](CC(N)=O)C(=O)N[C@@H](CCC(=O)O)C(=O)N[C@H](CCCCC=C)C(=O)N[C@@H](CC(C)C)C(=O)N[C@@H](CCC(=O)O)C(=O)N[C@@H](C)C(=O)N[C@@H](CC(C)C)C(=O)N[C@@H](CCCCN)C(=O)N[C@@H](CCC(N)=O)C(=O)N[C@@H](CCCCN)C(=O)N[C@@H](CC(C)C)C(=O)N[C@@H](CCCCN)C(N)=O` [SEQ ID NO 10, PVLDES7HREKLNER6HLEALKQKLK] (Ac-PVLDE[Ala(5-hexenyl)]REKLNE[dNle(6-vinyl)]LEALKQKLK-NH2; C-terminus assumed), the IC50 in experiment [1] (setting [3]) came to 44 µM. Further, the EC50 in experiment [2] (setting [4]) stood at 1.2 µM. For `CC(=O)N1CCC[C@H]1C(=O)N[C@H](C(=O)N[C@@H](CC(C)C)C(=O)N[C@@H](CC(=O)O)C(=O)N[C@@H](CCC(=O)O)C(=O)N[C@@H](Cc1ccccc1)C(=O)N[C@@H](CCCNC(=N)N)C(=O)N[C@@H](CCC(=O)O)C(=O)N[C@@H]1CCCC=CCCC[C@H](C(=O)N[C@@H](CC(C)C)C(=O)N[C@@H](CCC(=O)O)C(=O)N[C@@H](C)C(=O)N[C@@H](CC(C)C)C(=O)N[C@@H](CCCCN)C(=O)N[C@@H](CCC(N)=O)C(=O)N[C@@H](CCCCN)C(=O)N[C@@H](CC(C)C)C(=O)N[C@@H](CCCCN)C(N)=O)NC(=O)[C@H](CCC(=O)O)NC(=O)[C@H](CC(N)=O)NC(=O)[C@H](CC(C)C)NC1=O)C(C)C` [SEQ ID NO 12, PVLDEFRER5HLNER5HLEALKQKLK (CYCLO R5H9-R5H13)] (Ac-PVLDEFRE[dNle(6-ylidene)]LNE[dNle(6-ylidene)]LEALKQKLK-NH2; staple 9-13; C-terminus assumed), in that order: 60 µM and 10 µM.

Turning to `C=CCCCCC[C@H](NC(=O)[C@H](CCC(=O)O)NC(=O)[C@H](CC(N)=O)NC(=O)[C@H](CC(C)C)NC(=O)[C@H](CCCCN)NC(=O)[C@H](CCC(=O)O)NC(=O)[C@H](CCCNC(=N)N)NC(=O)[C@@H](CCCCC=C)NC(=O)[C@H](CCC(=O)O)NC(=O)[C@H](CC(=O)O)NC(=O)[C@H](CC(C)C)NC(=O)[C@@H](NC(=O)[C@@H]1CCCN1C(C)=O)C(C)C)C(=O)N[C@@H](CC(C)C)C(=O)N[C@@H](CCC(=O)O)C(=O)N[C@@H](C)C(=O)N[C@@H](CC(C)C)C(=O)N[C@@H](CCCCN)C(=O)N[C@@H](CCC(N)=O)C(=O)N[C@@H](CCCCN)C(=O)N[C@@H](CC(C)C)C(=O)N[C@@H](CCCCN)C(N)=O` [SEQ ID NO 13, PVLDER6HREKLNES7HLEALKQKLK] (Ac-PVLDE[dNle(6-vinyl)]REKLNE[Ala(5-hexenyl)]LEALKQKLK-NH2; C-terminus assumed), in experiment [1] (setting [3]), the IC50 turned out to be 25 µM. Turning to `C=CCCCC[C@@H](NC(=O)[C@H](CCC(=O)O)NC(=O)[C@H](CC(N)=O)NC(=O)[C@H](CC(C)C)NC(=O)[C@H](CCCCN)NC(=O)[C@H](CCC(=O)O)NC(=O)[C@H](CCCNC(=N)N)NC(=O)[C@H](Cc1ccccc1)NC(=O)[C@H](CCC(=O)O)NC(=O)[C@H](CC(=O)O)NC(=O)[C@H](CC(C)C)NC(=O)[C@@H](NC(=O)[C@@H]1CCCN1C(C)=O)C(C)C)C(=O)N[C@@H](CC(C)C)C(=O)N[C@@H](CCC(=O)O)C(=O)N[C@@H](C)C(=O)N[C@@H](CC(C)C)C(=O)N[C@@H](CCCCN)C(=O)N[C@@H](CCC(N)=O)C(=O)N[C@@H](CCCCN)C(=O)N[C@@H](CC(C)C)C(=O)N[C@@H](CCCCN)C(N)=O` [SEQ ID NO 18, PVLDEFREKLNER6HLEALKQKLK] (Ac-PVLDEFREKLNE[dNle(6-vinyl)]LEALKQKLK-NH2; C-terminus assumed), the IC50 in experiment [1] (setting [3]) was found to be 32 µM. `CC(=O)N1CCC[C@H]1C(=O)N[C@H](C(=O)N[C@@H](CC(C)C)C(=O)N[C@@H](CC(=O)O)C(=O)N[C@@H](CCC(=O)O)C(=O)N[C@@H](Cc1ccccc1)C(=O)N[C@@H](CCCNC(=N)N)C(=O)N[C@@H](CC(C(=O)O)C(=O)O)C(=O)N[C@@H](CCCCN)C(=O)N[C@@H](CC(C)C)C(=O)N[C@@H](CC(N)=O)C(=O)N[C@@H](CCC(=O)O)C(=O)N[C@@H](C)C(=O)N[C@@H](CC(C)C)C(=O)N[C@@H](CCC(=O)O)C(=O)N[C@@H](C)C(=O)N[C@@H](CC(C)C)C(=O)N[C@@H](CCCCN)C(=O)N[C@@H](CCC(N)=O)C(=O)N[C@@H](CCCCN)C(=O)N[C@@H](CC(C)C)C(=O)N[C@@H](CCCCN)C(N)=O)C(C)C` [compound 3] (Ac-PVLDEFR[Gla]KLNEALEALKQKLK-NH2; C-terminus assumed): in experiment [1] (Measured at 2 h), the “LIPID SOLUBILIZATION IC50” value is on record as “NOT ACTIVE”. For `C=CCCCCC[C@H](NC(=O)[C@H](CCC(=O)O)NC(=O)[C@H](CC(=O)O)NC(=O)[C@H](CC(C)C)NC(=O)[C@@H](NC(=O)[C@@H]1CCCN1C(C)=O)C(C)C)C(=O)N[C@@H](CCCNC(=N)N)C(=O)N[C@@H](CCC(=O)O)C(=O)N[C@@H](CCCCN)C(=O)N[C@@H](CC(C)C)C(=O)N[C@@H](CC(N)=O)C(=O)N[C@@H](CCC(=O)O)C(=O)N[C@H](CCCCC=C)C(=O)N[C@@H](CC(C)C)C(=O)N[C@@H](CCC(=O)O)C(=O)N[C@@H](C)C(=O)N[C@@H](CC(C)C)C(=O)N[C@@H](CCCCN)C(=O)N[C@@H](CCC(N)=O)C(=O)N[C@@H](CCCCN)C(=O)N[C@@H](CC(C)C)C(=O)N[C@@H](CCCCN)C(N)=O` [compound 10] (Ac-PVLDE[Ala(5-hexenyl)]REKLNE[dNle(6-vinyl)]LEALKQKLK-NH2; C-terminus assumed), the EC50 in experiment [2] (setting [5]) worked out at 1.3 µM.

Regarding `CC(=O)N1CCC[C@H]1C(=O)N[C@H](C(=O)N[C@@H](CC(C)C)C(=O)N[C@@H](CC(=O)O)C(=O)N[C@@H](CCC(=O)O)C(=O)N[C@@H](Cc1ccccc1)C(=O)N[C@@H](CCCNC(=N)N)C(=O)N[C@@H](CCC(=O)O)C(=O)N[C@@H]1CCCC=CCCC[C@H](C(=O)N[C@@H](CC(C)C)C(=O)N[C@@H](CCC(=O)O)C(=O)N[C@@H](C)C(=O)N[C@@H](CC(C)C)C(=O)N[C@@H](CCCCN)C(=O)N[C@@H](CCC(N)=O)C(=O)N[C@@H](CCCCN)C(=O)N[C@@H](CC(C)C)C(=O)N[C@@H](CCCCN)C(N)=O)NC(=O)[C@H](CCC(=O)O)NC(=O)[C@H](CC(N)=O)NC(=O)[C@H](CC(C)C)NC1=O)C(C)C` [compound 12] (Ac-PVLDEFRE[dNle(6-ylidene)]LNE[dNle(6-ylidene)]LEALKQKLK-NH2; staple 9-13; C-terminus assumed), the EC50 in experiment [2] (setting [5]) came to 10 µM.

For the compound “Ac-PVLDEFREKLNE[Ala(5-hexenyl)]LEALKQKLKPVLDEFREKLNE[Ala(5-hexenyl)]LEALKQKLK-NH2 (C-terminus assumed) [SEQ ID NO 63]”, in experiment [2] (setting [4]), the EC50 came out at 41 µM. In the case of “PR7HLDEFREKLNEELEALKQKLK (Ac-P[dGly(6-heptenyl)]LDEFREKLNEELEALKQKLK; not fully specified (C-terminus)) [SEQ ID NO 20]”, the “activity in the cholesterol efflux / in vitro RCT assay, in words” value in experiment [2] is recorded as “only slightly active”.

Consider “PS6HLDEFREKLNEELEALKQKLK (Ac-P[S6H]LDEFREKLNEELEALKQKLK; not fully specified (C-terminus)) [SEQ ID NO 23]”, for which, in experiment [2], the “activity in the cholesterol efflux / in vitro RCT assay, in words” value is “only slightly active”.

As to “PVLDEFREKLNEELEALKQR7HLK (Ac-PVLDEFREKLNEELEALKQ[dGly(6-heptenyl)]LK; not fully specified (C-terminus); printed as PVLDEFREKLNEELEALKQR7HLK) [SEQ ID NO 22]”, the “activity in the cholesterol efflux / in vitro RCT assay, in words” value in experiment [2] was “only slightly active”.

Regarding “PVLDEFREKLNEELEALKQS6HLK (Ac-PVLDEFREKLNEELEALKQ[S6H]LK; not fully specified (C-terminus); printed as PVLDEFREKLNEELEALKQS6HLK) [SEQ ID NO 25]”, the “activity in the cholesterol efflux / in vitro RCT assay, in words” value in experiment [2] is on record as “only slightly active”.
